Entries after “also recorded” stand apart in the source; their conditions may differ. Like-named read-outs stand apart in the source and are kept apart here.
What was measured:
[1] = Toxicokinetics of PTA and PTB in plasma after intravenous administration of PTA; format: in vivo, Jersey heifers; conditions: for AUC0-∞: PTA in plasma; for k el / clearance / MRT / Vd: iv; for k el: read-out: λz terminal slope (converted)
Procedure: (§1) Two heifers (no’s 4848 and 4849) were used in a series of five experiments (Table 1) in a cross-over design including intravenous administration of pure PTA, oral administration of bracken extract and oral administration of dried bracken fern. At least 2 weeks elapsed between each experiment.
Intravenous administration of PTA. In Experiment 1 the dose of purified PTA (0.21 mg kg^-1 body weight (b.w.) / 0.527 μmoles kg^-1) was dissolved in 10 mL of sterile water in a brown glass vial 1 hour before administration and protected from light. The solution was injected through a catheter (Cavafix Certo: 45 cm, 16 G; B. Braun Melsungen AG, Melsungen, Germany) placed in the right jugular vein. Blood samples were collected through another catheter placed in the left jugular vein. Blood samples were collected in heparinized glass tubes before and at predetermined times (10, 20, 30, 45 min and 1, 2, 4, 6, 8, 12, 21 and 24 hours) after PTA administration. The blood was centrifuged for 15 min at 3000 g to separate plasma which then was stored immediately at -18°C until assayed within a week following the method of Aranha et al.. Urine was collected quantitatively in urinary bags (Ratiomed GmBH, München, Germany) through a Foley catheter (Rusch Silasil no 16; Teleflex, Milan, Italy) inserted into the bladder. Samples were collected before and at predetermined times (1, 2, 4, 6, 8, 12, 20 and 24 hours) after PTA administration. Two replicates from each sample were diluted 10 times (0.5 mL: 4.5 mL) with 0.1 M acetic acid, buffered to pH 5 with ammonium acetate and frozen immediately at -18°C until assayed within a week following the method of Aranha et al.. […] In this experiment, PTA was dissolved in sterile water immediately before injection.
(§2) Concentrations of PTA in plasma of individual animals were evaluated by non-compartmental analysis. Toxicokinetic variables were calculated using standard kinetic equations. The area under the curve (AUC) and the area under the first moment curve (AUMC) were determined using combined linear and natural logarithm trapezoidal rules. The terminal elimination rate was determined using the last three data points of the curve.
(§3) PTA and PTB were analysed by LC-MS after purification using solid phase extraction (SPE) columns as reported in Aranha et al.. The limit of quantification of PTA and PTB in plasma was 3.0 x 10^−3 μM and 9.30 x 10^−3 μM, respectively. Limit of quantifications in diluted urine was 13 x 10^−3 μM for PTA and 8.28 x 10^−3μM for PTB.

[2] = Presence of glucuronides and sulphates in urine (B-glucuronidase/arylsulfatase incubation); format: in vivo, Jersey heifers; conditions: urine after iv PTA
Procedure: The presence of glucuronides and sulphates was assessed by incubating 1 ml of buffered urine samples in 0.1 M acetic acid buffer (pH 5) with or without addition of 100 μl of B-glucuronidase/arylsulfatase at 37°C for 3 hours on a shaking water bath. Afterwards, an aliquot of 950 μl of each samples were cleaned on the Oasis HLB cartridges and analysed as described for urine samples [22].

[3] = Toxicokinetics in plasma after oral administration of bracken extract or dried bracken fern; format: in vivo, Jersey heifers; conditions: bracken extract or dried bracken fern, Experiments 2, 3 and 5
Procedure: as §1
(§4) Oral exposure, bracken extract. Bracken extract was administered orally by gavage in Experiment 2 (170 and 172 mL) and Experiment 5 (820 and 850 mL), to obtain PTA doses of 0.41 and 2 mg kg^-1 b.w (1.025 and 5.000 μmoles kg^-1), respectively. Blood and urine samples were collected up to 48 hours after gavage and samples were processed and stored as described previously.
(§5) Oral exposure, dried bracken fern. In Experiment 3, dried bracken fern was milled to a fine powder. Immediately before administration, the powder was mixed with water to produce a slurry (15 g of bracken per 100 mL of water). The slurry was administered orally by gavage (400 mL and 380 mL) corresponding to a PTA dose of 1.6 mg kg^-1 b.w (4 μmoles kg^-1). Blood and urine samples were collected up to 72 hours after gavage and the samples were processed and stored as described above.
as §2, §3

[4] = Urinary recovery after oral administration of bracken extract or dried bracken fern; format: in vivo, Jersey heifers; conditions: bracken extract or dried bracken fern
Procedure: as §4, §5, §3

[5] = Incubation of bracken extract in rumen liquid, in vitro; format: in vitro ADME, Jersey cows; conditions: boiled (sterilized) or pre-frozen rumen fluid
[6] = cited from earlier work
[7] = cows fed bracken for 5 days, PTA dose 23 μmol kg^-1

CC1=C[C@]2(O[C@@H]3O[C@H](CO)[C@@H](O)[C@H](O)[C@H]3O)C[C@@H](C)C(=O)[C@@H]2[C@](C)(O)C12CC2 [PTA, (2'R,3a'R,4'S,7a'R)-4'-Hydroxy-2',4',6'-trimethyl-3'-oxo-2',3',3a',4'-tetrahydrospiro[cyclopropane-1,5'-inden]-7a'(1'H)-yl β-D-glucopyranoside]
AUC0-∞ ([1]; iv PTA 0.141 μmoles kg^-1, heifer no 4849, head prints Experiment 2): 0.42 µM·h | AUC0-∞ ([1]; iv PTA 0.231 μmoles kg^-1, heifer no 4848, head prints Experiment 2): 0.829 µM·h | AUC0-∞ ([1]; iv PTA 0.527 μmoles kg^-1, heifer no 4848, Experiment 1): 1.39 µM·h | AUC0-∞ ([1]; iv PTA 0.527 μmoles kg^-1, heifer no 4849, Experiment 1): 1.35 µM·h | k el ([1]; female, Jersey, bovine, plasma, 0.141 μmoles kg^-1, iv PTA 0.141 μmoles kg^-1, heifer no 4849, head prints Experiment 2, plasma): 6.72e-05 s⁻¹ | clearance ([1]; female, Jersey, bovine, plasma, 0.141 μmoles kg^-1, iv PTA 0.141 μmoles kg^-1, heifer no 4849, head prints Experiment 2, read-out: Cl (body) body clearance (converted)): 5.57 mL/min/kg | MRT ([1]; female, Jersey, bovine, plasma, 0.141 μmoles kg^-1, iv PTA 0.141 μmoles kg^-1, heifer no 4849, head prints Experiment 2, read-out: MRT mean residence time): 2.48 h | Vd ([1]; female, Jersey, bovine, plasma, 0.141 μmoles kg^-1, iv PTA 0.141 μmoles kg^-1, heifer no 4849, head prints Experiment 2, read-out: Vss apparent volume of distribution at steady-state): 0.83 L/kg | k el ([1]; female, Jersey, bovine, plasma, 0.231 μmoles kg^-1, iv PTA 0.231 μmoles kg^-1, heifer no 4848, head prints Experiment 2, plasma): 0.000105 s⁻¹ | clearance ([1]; female, Jersey, bovine, plasma, 0.231 μmoles kg^-1, iv PTA 0.231 μmoles kg^-1, heifer no 4848, head prints Experiment 2, read-out: Cl (body) body clearance (converted)): 4.72 mL/min/kg | MRT ([1]; female, Jersey, bovine, plasma, 0.231 μmoles kg^-1, iv PTA 0.231 μmoles kg^-1, heifer no 4848, head prints Experiment 2, read-out: MRT mean residence time): 2.04 h | Vd ([1]; female, Jersey, bovine, plasma, 0.231 μmoles kg^-1, iv PTA 0.231 μmoles kg^-1, heifer no 4848, head prints Experiment 2, read-out: Vss apparent volume of distribution at steady-state): 0.567 L/kg | k el ([1]; female, Jersey, bovine, plasma, 0.527 μmoles kg^-1, iv PTA 0.527 μmoles kg^-1, heifer no 4848, Experiment 1, plasma): 4.25e-05 s⁻¹ | clearance ([1]; female, Jersey, bovine, plasma, 0.527 μmoles kg^-1, iv PTA 0.527 μmoles kg^-1, heifer no 4848, Experiment 1, read-out: Cl (body) body clearance (converted)): 6.33 mL/min/kg | MRT ([1]; female, Jersey, bovine, plasma, 0.527 μmoles kg^-1, iv PTA 0.527 μmoles kg^-1, heifer no 4848, Experiment 1, read-out: MRT mean residence time): 2.99 h | Vd ([1]; female, Jersey, bovine, plasma, 0.527 μmoles kg^-1, iv PTA 0.527 μmoles kg^-1, heifer no 4848, Experiment 1, read-out: Vss apparent volume of distribution at steady-state): 1.14 L/kg | k el ([1]; female, Jersey, bovine, plasma, 0.527 μmoles kg^-1, iv PTA 0.527 μmoles kg^-1, heifer no 4849, Experiment 1, plasma): 3.19e-05 s⁻¹ | clearance ([1]; female, Jersey, bovine, plasma, 0.527 μmoles kg^-1, iv PTA 0.527 μmoles kg^-1, heifer no 4849, Experiment 1, read-out: Cl (body) body clearance (converted)): 6.48 mL/min/kg | MRT ([1]; female, Jersey, bovine, plasma, 0.527 μmoles kg^-1, iv PTA 0.527 μmoles kg^-1, heifer no 4849, Experiment 1, read-out: MRT mean residence time): 3.84 h | Vd ([1]; female, Jersey, bovine, plasma, 0.527 μmoles kg^-1, iv PTA 0.527 μmoles kg^-1, heifer no 4849, Experiment 1, read-out: Vss apparent volume of distribution at steady-state): 1.49 L/kg | Vd ([1]; female, Jersey, bovine, plasma, 0.21 mg/kg, iv PTA 0.21 mg kg^-1 b.w., average of two heifers, read-out: apparent volume of distribution at steady state (Vss)): ~1.3 L/kg | MRT ([1]; female, Jersey, bovine, plasma, iv PTA, abstract and discussion, read-out: mean residence time (MRT), as summarised): ≤ 4 h | half-life ([1]; female, Jersey, bovine, plasma, iv purified PTA, read-out: terminal half-life): ≤ 6 h | Vd ([1]; female, Jersey, cattle, plasma, 0.21 mg/kg, iv PTA 0.21 mg kg^-1 b.w., average of two heifers, read-out: apparent volume of distribution at steady state (Vss)): 1.3 L/kg | clearance ([1]; female, Jersey, cattle, plasma, 0.21 mg/kg, iv PTA 0.21 mg kg^-1 b.w., average of two heifers, read-out: average clearance (converted)): 6.5 mL/min/kg | MRT ([1]; female, Jersey, cattle, plasma, 0.21 mg/kg, iv PTA 0.21 mg kg^-1 b.w., average of two heifers, read-out: average of the mean residence time (MRT)): 3.4 h | MRT ([1]; female, Jersey, cattle, plasma, iv PTA, abstract and discussion, read-out: mean residence time (MRT), as summarised): 4 h | time after which the plasma concentration was below the limit of quantification ([1]; iv PTA 0.21 mg kg^-1 b.w.): 12 h | conjugation with glucuronic acid or sulphate in urine [2]: not conjugated with either glucuronic acid or sulphate | PTA in plasma after oral administration [3]: not detected; also recorded: neither detected | PTA in plasma after oral administration ([3]; listed as ptaquiloside): did not result in observations of ptaquiloside in body fluids | PTA in urine after oral administration [4]: neither detected | degradation of PTA in boiled or pre-frozen rumen fluid [5]: did not reveal any degradation; also recorded: did not degrade PTA | time after feeding bracken at which PTA was found in milk [6]: 38 h | PTA excreted in milk as share of the dose [6, 7]: 9.6 % of the dose | plateau of PTA excreted in milk [6, 7]: 50 µM | PTA concentration in milk ([6]; one cow fed 6 kg freshly cut bracken daily for 7 days, PTA 540 μmol day^-1): 0.28 µM

— paper PMC6588243, “Fate of ptaquiloside—A bracken fern toxin—In cattle” (PLoS ONE, 2019)
